# From ChEMBL document CHEMBL3132769, “Fragment growing to retain or alter the selectivity of anchored kinase hinge-binding fragments” (Medchemcomm, 2014)
# Assays:
# [1] = target: Ribosomal protein S6 kinase alpha-5 (Homo sapiens) (UniProt O75582); experiment: Inhibition of human full length MSK1 expressed in baculovirus assessed as substrate phosphorylation using fluorescence-labelled peptides as substrate at 420 uM after 90 mins by microfluidic peptide phosphorylation assay
# [2] = target: T1, Serine/threonine-protein kinase BRSK2 (Homo sapiens) (UniProt Q8IWQ3); experiment: Inhibition of human truncated BRSK2 expressed in baculovirus assessed as substrate phosphorylation using fluorescence-labelled peptides as substrate at 2 uM after 90 mins by microfluidic peptide phosphorylation assay
# T1 sequence (whole entry): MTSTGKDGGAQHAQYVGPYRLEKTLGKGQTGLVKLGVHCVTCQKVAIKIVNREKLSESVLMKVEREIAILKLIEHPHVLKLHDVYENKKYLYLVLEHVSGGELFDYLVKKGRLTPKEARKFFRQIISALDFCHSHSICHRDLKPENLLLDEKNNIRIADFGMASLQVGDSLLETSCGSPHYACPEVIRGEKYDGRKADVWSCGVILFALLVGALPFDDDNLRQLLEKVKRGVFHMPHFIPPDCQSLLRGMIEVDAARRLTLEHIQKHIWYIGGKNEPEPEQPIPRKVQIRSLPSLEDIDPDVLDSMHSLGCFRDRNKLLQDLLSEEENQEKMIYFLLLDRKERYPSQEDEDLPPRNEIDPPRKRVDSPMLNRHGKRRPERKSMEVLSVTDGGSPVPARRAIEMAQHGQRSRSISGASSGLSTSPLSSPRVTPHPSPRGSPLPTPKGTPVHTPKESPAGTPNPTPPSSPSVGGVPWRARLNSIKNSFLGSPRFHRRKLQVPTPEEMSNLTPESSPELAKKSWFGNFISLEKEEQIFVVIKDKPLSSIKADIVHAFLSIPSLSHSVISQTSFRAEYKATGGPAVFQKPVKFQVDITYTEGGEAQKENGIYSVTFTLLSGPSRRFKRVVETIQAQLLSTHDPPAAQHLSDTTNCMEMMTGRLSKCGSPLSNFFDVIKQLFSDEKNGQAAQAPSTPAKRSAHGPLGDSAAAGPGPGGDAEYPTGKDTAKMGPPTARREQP
# [3] = target: Tyrosine-protein kinase Lyn (Homo sapiens) (UniProt P07948); experiment: Inhibition of human full length LYN expressed in baculovirus assessed as substrate phosphorylation using fluorescence-labelled peptides as substrate at 2 uM after 90 mins by microfluidic peptide phosphorylation assay
# [4] = target: T2, Mitogen-activated protein kinase 13 (Homo sapiens) (UniProt O15264); experiment: Inhibition of human full length p38 delta expressed in Escherichia coli cell assessed as substrate phosphorylation using fluorescence-labelled peptides as substrate at 95 uM after 90 mins by microfluidic peptide phosphorylation assay
# T2 sequence (whole entry): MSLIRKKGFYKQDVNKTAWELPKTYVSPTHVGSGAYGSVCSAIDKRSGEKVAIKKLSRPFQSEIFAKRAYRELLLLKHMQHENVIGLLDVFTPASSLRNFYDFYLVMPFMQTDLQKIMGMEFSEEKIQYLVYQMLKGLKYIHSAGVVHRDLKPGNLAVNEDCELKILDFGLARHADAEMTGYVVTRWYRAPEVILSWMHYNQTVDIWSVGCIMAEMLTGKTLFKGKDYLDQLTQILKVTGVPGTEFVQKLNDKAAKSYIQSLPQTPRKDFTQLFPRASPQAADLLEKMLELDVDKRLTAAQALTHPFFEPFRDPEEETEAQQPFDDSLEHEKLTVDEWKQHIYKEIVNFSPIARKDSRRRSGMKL
# [5] = target: T3, Inhibitor of nuclear factor kappa-B kinase subunit beta (Homo sapiens) (UniProt O14920); experiment: Inhibition of human full length IKK beta expressed in baculovirus assessed as substrate phosphorylation using fluorescence-labelled peptides as substrate at […] after 90 mins by microfluidic peptide phosphorylation assay
# T3 sequence (whole entry): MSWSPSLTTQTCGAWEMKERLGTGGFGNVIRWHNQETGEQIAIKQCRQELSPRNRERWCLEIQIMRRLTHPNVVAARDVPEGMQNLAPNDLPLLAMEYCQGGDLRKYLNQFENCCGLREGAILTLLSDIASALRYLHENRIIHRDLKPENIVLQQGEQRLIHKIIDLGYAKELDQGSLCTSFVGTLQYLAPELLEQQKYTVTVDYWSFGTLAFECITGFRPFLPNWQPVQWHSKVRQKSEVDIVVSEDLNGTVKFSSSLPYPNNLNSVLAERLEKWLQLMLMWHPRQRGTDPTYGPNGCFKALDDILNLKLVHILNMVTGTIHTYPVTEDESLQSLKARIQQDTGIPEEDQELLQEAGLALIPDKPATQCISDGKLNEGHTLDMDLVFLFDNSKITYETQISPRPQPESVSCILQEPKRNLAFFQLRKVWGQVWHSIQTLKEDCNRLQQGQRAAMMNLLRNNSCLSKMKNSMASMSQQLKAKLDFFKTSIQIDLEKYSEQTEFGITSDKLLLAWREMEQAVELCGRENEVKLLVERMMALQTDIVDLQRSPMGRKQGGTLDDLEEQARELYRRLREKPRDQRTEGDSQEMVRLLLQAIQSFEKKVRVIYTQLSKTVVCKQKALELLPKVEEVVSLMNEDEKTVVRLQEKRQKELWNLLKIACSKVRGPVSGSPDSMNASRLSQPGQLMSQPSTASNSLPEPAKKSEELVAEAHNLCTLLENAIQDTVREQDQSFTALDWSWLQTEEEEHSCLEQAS
# [6] = target: T4, Protein kinase C zeta type (Homo sapiens) (UniProt Q05513); experiment: Inhibition of human full length PKC zeta expressed in baculovirus assessed as substrate phosphorylation using fluorescence-labelled peptides as substrate at 8 uM after 90 mins by microfluidic peptide phosphorylation assay
# T4 sequence (whole entry): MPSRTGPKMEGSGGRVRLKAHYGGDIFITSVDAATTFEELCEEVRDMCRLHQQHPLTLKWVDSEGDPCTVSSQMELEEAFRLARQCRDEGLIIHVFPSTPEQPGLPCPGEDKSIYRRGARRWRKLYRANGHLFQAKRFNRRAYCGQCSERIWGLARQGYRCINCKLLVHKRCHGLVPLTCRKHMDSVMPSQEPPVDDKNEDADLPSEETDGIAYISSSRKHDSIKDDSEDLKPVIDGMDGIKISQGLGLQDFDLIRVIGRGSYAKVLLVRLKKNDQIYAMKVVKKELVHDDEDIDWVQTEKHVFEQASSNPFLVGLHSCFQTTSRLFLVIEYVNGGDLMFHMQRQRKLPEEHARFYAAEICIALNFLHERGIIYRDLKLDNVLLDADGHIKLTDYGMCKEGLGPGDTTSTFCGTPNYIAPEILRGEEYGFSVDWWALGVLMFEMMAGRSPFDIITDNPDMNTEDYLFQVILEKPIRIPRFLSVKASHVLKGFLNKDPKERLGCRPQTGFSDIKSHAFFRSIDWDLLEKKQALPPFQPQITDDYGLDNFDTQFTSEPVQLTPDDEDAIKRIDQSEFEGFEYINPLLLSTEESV
# [7] = test system: Tyrosine-protein kinase ABL1 (Homo sapiens), P00519 [H396P]; experiment: Inhibition of human truncated ABL H396P mutant expressed in baculovirus assessed as substrate phosphorylation using fluorescence-labelled peptides as substrate at 1000 uM after 90 mins by microfluidic peptide phosphorylation assay
# Ribosomal protein S6 kinase alpha-5 (Homo sapiens), sequence (O75582 whole entry, looked up, the tested form may be a part): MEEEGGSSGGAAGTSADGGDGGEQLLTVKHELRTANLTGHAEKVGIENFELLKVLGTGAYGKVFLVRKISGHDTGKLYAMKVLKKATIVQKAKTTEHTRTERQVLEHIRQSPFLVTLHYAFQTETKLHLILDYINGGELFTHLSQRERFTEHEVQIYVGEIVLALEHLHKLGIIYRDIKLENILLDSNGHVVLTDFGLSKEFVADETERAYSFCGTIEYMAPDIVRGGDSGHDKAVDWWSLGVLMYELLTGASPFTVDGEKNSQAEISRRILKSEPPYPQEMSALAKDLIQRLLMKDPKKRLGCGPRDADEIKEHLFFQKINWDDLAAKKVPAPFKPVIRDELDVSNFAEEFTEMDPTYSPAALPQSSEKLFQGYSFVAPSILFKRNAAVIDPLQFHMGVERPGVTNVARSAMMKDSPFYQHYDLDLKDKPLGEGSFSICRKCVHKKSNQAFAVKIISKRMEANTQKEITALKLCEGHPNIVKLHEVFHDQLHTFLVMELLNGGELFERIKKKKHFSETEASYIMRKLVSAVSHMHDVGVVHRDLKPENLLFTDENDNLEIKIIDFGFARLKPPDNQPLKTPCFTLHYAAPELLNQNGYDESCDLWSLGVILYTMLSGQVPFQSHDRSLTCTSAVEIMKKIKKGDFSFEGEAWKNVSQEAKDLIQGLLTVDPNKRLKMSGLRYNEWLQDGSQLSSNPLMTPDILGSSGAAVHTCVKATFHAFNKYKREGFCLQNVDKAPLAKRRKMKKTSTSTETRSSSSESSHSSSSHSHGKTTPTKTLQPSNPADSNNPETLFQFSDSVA
# Tyrosine-protein kinase Lyn (Homo sapiens), sequence (P07948 2-512 limits assumed): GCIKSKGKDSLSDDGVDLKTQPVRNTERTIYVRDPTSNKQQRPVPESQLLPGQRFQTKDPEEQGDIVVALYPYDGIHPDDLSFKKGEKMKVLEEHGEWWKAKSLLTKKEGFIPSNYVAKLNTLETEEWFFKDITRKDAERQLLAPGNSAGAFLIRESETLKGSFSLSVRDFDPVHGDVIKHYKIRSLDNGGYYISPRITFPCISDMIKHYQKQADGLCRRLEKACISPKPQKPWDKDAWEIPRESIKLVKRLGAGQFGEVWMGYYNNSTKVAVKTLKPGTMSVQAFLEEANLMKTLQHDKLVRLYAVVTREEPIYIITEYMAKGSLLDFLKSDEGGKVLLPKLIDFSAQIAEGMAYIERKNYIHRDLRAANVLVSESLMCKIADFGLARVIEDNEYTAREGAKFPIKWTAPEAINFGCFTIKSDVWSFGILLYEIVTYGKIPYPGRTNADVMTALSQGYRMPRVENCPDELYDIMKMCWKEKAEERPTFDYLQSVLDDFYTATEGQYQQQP
smiles,measurement,setting,value
c1nc(N2CCOCC2)c2nc[nH]c2n1,inhibition,[1],78.5%
NC1CCN(c2ncnc3[nH]ccc23)CC1,inhibition,[2],2.5%
same,inhibition,[3],0.5%
NCCc1ccc(-c2ncnc3[nH]cnc23)cc1,inhibition,[4],13%
COC(=O)c1cnc(Nc2cnc(C#N)cn2)cc1NCC1CCNCC1,inhibition,[5],2%
NCC1CCN(c2ncnc3[nH]ccc23)CC1,inhibition,[6],67.5%
c1cnc2[nH]ccc2c1,inhibition,[7],44.5%
